In patent US20260216196A1, “IMIDAZO[1,2-A]PYRIDINE AND IMIDAZO[1,2-A]PYRAZINE DERIVATIVES AS MLLT1 AND MLLT3 INHIBITORS” (DARK BLUE THERAPEUTICS LTD., priority 2022, published 2026):
Read-outs that look alike come from different tables or passages of the source.

Assays:
MLLT1 [1] = target: T1, MLLT1 (Homo sapiens, UniProt Q03111); conditions: read-out: MLLT1 assay IC50; HTRF, 6His tagged MLLT1, biotinylated H3K9cro peptide; compound 20 μM to 20 nM, 11 data points in duplicate
MLLT3 = MLLT3 (Homo sapiens, UniProt P42568); experiment: HTRF IC50 determination assay, MLLT3 / H3K9cro peptide displacement
MLLT3, sequence (P42568 whole entry): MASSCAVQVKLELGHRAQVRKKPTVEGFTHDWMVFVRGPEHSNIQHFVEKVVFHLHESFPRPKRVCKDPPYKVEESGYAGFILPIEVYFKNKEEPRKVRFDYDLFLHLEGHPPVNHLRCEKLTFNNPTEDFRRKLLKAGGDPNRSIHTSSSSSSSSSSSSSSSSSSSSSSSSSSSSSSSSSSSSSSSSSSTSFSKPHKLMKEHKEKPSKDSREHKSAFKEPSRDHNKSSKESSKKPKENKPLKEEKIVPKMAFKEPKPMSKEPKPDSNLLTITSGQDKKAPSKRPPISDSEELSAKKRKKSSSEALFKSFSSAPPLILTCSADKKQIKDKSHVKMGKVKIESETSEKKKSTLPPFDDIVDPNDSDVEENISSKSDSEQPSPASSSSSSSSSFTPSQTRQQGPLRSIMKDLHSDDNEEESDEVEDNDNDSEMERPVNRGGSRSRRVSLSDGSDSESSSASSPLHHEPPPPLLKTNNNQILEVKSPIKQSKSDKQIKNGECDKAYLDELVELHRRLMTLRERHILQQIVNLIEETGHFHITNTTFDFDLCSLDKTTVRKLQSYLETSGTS

MLLT1 [2] = target: T1, MLLT1; experiment: biochemical; conditions: MLLT1 assay IC50 (nM), HTRF, 6His tagged MLLT1, biotinylated H3K9cro peptide; compound 20 μM to 20 nM, 11 data points in duplicate
[3] = read-out: MLLT3 assay IC50, 6His tagged MLLT3, biotinylated H3K9cro peptide, compound 20 μM to 20 nM, 11 data points in duplicate
[4] = MLLT3 assay IC50 (nM), 6His tagged MLLT3, biotinylated H3K9cro peptide, compound 20 μM to 20 nM, 11 data points in duplicate

T1 sequence (Q03111 whole entry): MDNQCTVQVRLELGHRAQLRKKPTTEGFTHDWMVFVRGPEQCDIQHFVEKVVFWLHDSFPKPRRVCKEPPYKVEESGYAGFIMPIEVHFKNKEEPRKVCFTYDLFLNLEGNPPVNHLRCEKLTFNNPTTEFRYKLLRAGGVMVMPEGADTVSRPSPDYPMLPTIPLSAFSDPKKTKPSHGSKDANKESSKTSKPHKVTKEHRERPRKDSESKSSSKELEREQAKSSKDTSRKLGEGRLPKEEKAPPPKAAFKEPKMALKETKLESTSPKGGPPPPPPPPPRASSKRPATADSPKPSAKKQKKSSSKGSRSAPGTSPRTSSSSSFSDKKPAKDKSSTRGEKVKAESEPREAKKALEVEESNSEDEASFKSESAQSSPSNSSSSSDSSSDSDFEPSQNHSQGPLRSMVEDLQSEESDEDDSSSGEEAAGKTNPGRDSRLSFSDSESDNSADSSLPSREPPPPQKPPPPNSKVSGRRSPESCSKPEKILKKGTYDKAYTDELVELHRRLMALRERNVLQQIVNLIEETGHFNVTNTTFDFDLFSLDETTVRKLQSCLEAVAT

| IC50 (MLLT1 [2]) [nM] | IC50 (MLLT3; [4]) [nM] | Structure (SMILES) | IC50 (MLLT1 [1]) [µM] | IC50 (MLLT3; [3]) [nM] |
| --- | --- | --- | --- | --- |
|  |  | C[C@H]1C[C@H](c2cn3cc(NC(=O)c4ccc5c(cnn5C)c4)ncc3n2)N(C)C1 (relative stereo) [Example 89, N-(2-((2R, rel-4S)-1,4-dimethylpyrrolidin-2-yl)imidazo[1,2-a]pyrazin-6-yl)-1-methyl-1H-indazole-5-carboxamide] | 0.15 to 1.5 | 150 to 1500 |
|  |  | C[C@@H]1C[C@H](c2cn3cc(NC(=O)c4ccc5c(cnn5C)c4)ncc3n2)N(C)C1 (relative stereo) [Example 90, N-(2-((2R, rel-4R)-1,4-dimethylpyrrolidin-2-yl)imidazo[1,2-a]pyrazin-6-yl)-1-methyl-1H-indazole-5-carboxamide] | < 0.15 | 150 to 1500 |
| 1500 to 20000 | 1500 to 20000 | Cc1nn(C)c2cc(C(=O)Nc3cn4cc([C@@H]5CCCN5C)nc4cn3)ccc12 (single isomer, unassigned) [Example 69] |  |  |
| 1500 to 20000 | 1500 to 20000 | Cc1nn(C)c2cc(C(=O)Nc3cn4cc(C5CC(C)(C)CN5C)nc4cn3)ccc12 (single isomer, unassigned) [Example 81] |  |  |
| < 150 | < 150 | Cc1nn(C)c2cc(C(=O)Nc3cn4cc(C5CC(C)(C)CN5C)nc4cn3)ccc12 (single isomer, unassigned) [Example 82] |  |  |
| 150 to 1500 | 150 to 1500 | CCN1CCCC1c1cn2cc(NC(=O)c3ccc4c(C)nn(C)c4c3)ncc2n1 (single isomer, unassigned) [Example 87, N-{2-[(rel-2R)-1-ethylpyrrolidin-2-yl]imidazo[1,2-a]pyrazin-6-yl}-1,3-dimethylindazole-6-carboxamide] |  |  |
| 1500 to 20000 | 1500 to 20000 | CCN1CCCC1c1cn2cc(NC(=O)c3ccc4c(C)nn(C)c4c3)ncc2n1 (single isomer, unassigned) [Example 88, N-{2-[(rel-2S)-1-ethylpyrrolidin-2-yl]imidazo[1,2-a]pyrazin-6-yl}-1,3-dimethylindazole-6-carboxamide] |  |  |
|  |  | CO[C@H]1C[C@H](c2cn3cc(NC(=O)c4ccc5c(cnn5C)c4)ncc3n2)N(C)C1 (stereo in doubt) [Example 85, N-{2-[(rel-2R,4S)-4-methoxy-1-methylpyrrolidin-2-yl]imidazo[1,2-a]pyrazin-6-yl}-1-methylindazole-5-carboxamide] | 0.15 to 1.5 | 150 to 1500 |
|  |  | CO[C@H]1C[C@@H](c2cn3cc(NC(=O)c4ccc5c(cnn5C)c4)ncc3n2)N(C)C1 (stereo in doubt) [Example 86, N-{2-[(rel-2S,4S)-4-methoxy-1-methylpyrrolidin-2-yl]imidazo[1,2-a]pyrazin-6-yl}-1-methylindazole-5-carboxamide] | 0.15 to 1.5 | 1500 to 20000 |
|  |  | CO[C@@H]1C[C@H](c2cn3cc(NC(=O)c4ccc5c(cnn5C)c4)ncc3n2)N(C)C1 (stereo in doubt) [Example 103, N-{2-[(rel-2R,4R)-4-methoxy-1-methylpyrrolidin-2-yl]imidazo[1,2-a]pyrazin-6-yl}-1-methylindazole-5-carboxamide] | 0.15 to 1.5 | 150 to 1500 |
| 150 to 1500 | 150 to 1500 | CN1CCCC1c1cn2cc(NC(=O)c3ccc4scnc4c3)ccc2n1 (centres unmarked) [Example 41] |  |  |
| 150 to 1500 | 150 to 1500 | CN1C2CCCCC2C[C@@H]1c1cn2cc(NC(=O)c3ccc4c(cnn4C)c3)ccc2n1 (stereo partly drawn) [Example 58, 1-methyl-N-{2-[(2R)-1-methyl-octahydro-1H-indol-2-yl]imidazo[1,2-a]pyridin-6-yl}-1H-indazole-5-carboxamide] |  |  |
| 150 to 1500 | 150 to 1500 | Cc1nn(C)c2cc(C(=O)Nc3cn4cc([C@H]5CCCN5C)nc4cn3)ccc12 [Example 70, 1,3-dimethyl-N-{2-[(2R)-1-methylpyrrolidin-2-yl]imidazo[1,2-a]pyrazin-6-yl}-1H-indazole-6-carboxamide] |  |  |
| 150 to 1500 | 150 to 1500 | CN1CCC[C@@H]1c1cn2cc(NC(=O)c3ccc4c(C5CC5)nn(C)c4c3)ncc2n1 [Example 71, 3-cyclopropyl-1-methyl-N-{2-[(2R)-1-methylpyrrolidin-2-yl]imidazo[1,2-a]pyrazin-6-yl}-1H-indazole-6-carboxamide] |  |  |
| 150 to 1500 | 150 to 1500 | CCc1nn(C)c2cc(C(=O)Nc3cn4cc([C@H]5CCCN5C)nc4cn3)ccc12 [Example 72, 3-ethyl-1-methyl-N-{2-[(2R)-1-methylpyrrolidin-2-yl]imidazo[1,2-a]pyrazin-6-yl}-1H-indazole-6-carboxamide] |  |  |
| 150 to 1500 | 150 to 1500 | Cc1nn(C)c2cc(C(=O)Nc3cn4cc([C@H]5CCCN5C)nc4cn3)c(F)cc12 [Example 73, 5-fluoro-1,3-dimethyl-N-{2-[(2R)-1-methylpyrrolidin-2-yl]imidazo[1,2-a]pyrazin-6-yl}-1H-indazole-6-carboxamide] |  |  |

| IC50 (MLLT1 [2]) [nM] | IC50 (MLLT3; [4]) [nM] | Structure (SMILES) | IC50 (MLLT1 [1]) [µM] | IC50 (MLLT3; [3]) [nM] |
| --- | --- | --- | --- | --- |
| 150 to 1500 | 1500 to 20000 | Cc1nn(C)c2cc(C(=O)Nc3cn4cc([C@H]5CCCN5)nc4cn3)ccc12 [Example 76, 1,3-dimethyl-N-[2-[(2R)-pyrrolidin-2-yl]imidazo[1,2-a]pyrazin-6-yl]indazole-6-carboxamide] |  |  |
| 150 to 1500 | 150 to 1500 | CN1C[C@@H](F)C[C@@H]1c1cn2cc(NC(=O)c3ccc4c(cnn4C)c3)ncc2n1 [Example 83, N-{2-[(2R,4S)-4-fluoro-1-methylpyrrolidin-2-yl]imidazo[1,2-a]pyrazin-6-yl}-1-methylindazole-5-carboxamide] |  |  |
| < 150 | 150 to 1500 | Cc1nc(NC(=O)c2cc3cnn(C)c3cc2F)cn2cc([C@H]3CCCN3C)nc12 [Example 91, 6-fluoro-1-methyl-N-{8-methyl-2-[(2R)-1-methylpyrrolidin-2-yl]imidazo[1,2-a]pyrazin-6-yl}indazole-5-carboxamide] |  |  |
| 1500 to 20000 | 1500 to 20000 | Cc1nc(NC(=O)c2cc3cnn(C)c3cc2Cl)cn2cc([C@H]3CCCN3C)nc12 [Example 92, (R)-6-chloro-1-methyl-N-(8-methyl-2-(1-methylpyrrolidin-2-yl)imidazo[1,2-a]pyrazin-6-yl)-1H-indazole-5-carboxamide] |  |  |
| 150 to 1500 | 150 to 1500 | Cc1nc(NC(=O)c2cc3cnc(C)n3cc2F)cn2cc([C@H]3CCCN3C)nc12 [Example 93, 6-fluoro-3-methyl-N-{8-methyl-2-[(2R)-1-methylpyrrolidin-2-yl]imidazo[1,2-a]pyrazin-6-yl}imidazo[1,5-a]pyridine-7-carboxamide] |  |  |
| 150 to 1500 | 150 to 1500 | Cc1nc(NC(=O)c2cc3c(C)nc(C)n3cc2F)cn2cc([C@H]3CCCN3C)nc12 [Example 94, 6-fluoro-1,3-dimethyl-N-{8-methyl-2-[(2R)-1-methylpyrrolidin-2-yl]imidazo[1,2-a]pyrazin-6-yl}imidazo[1,5-a]pyridine-7-carboxamide] |  |  |
| 1500 to 20000 | 1500 to 20000 | CN1CCC[C@@H]1c1cn2cc(NC(=O)c3cc4cnn(C)c4cn3)ncc2n1 [Example 95, 1-methyl-N-{2-[(2R)-1-methylpyrrolidin-2-yl]imidazo[1,2-a]pyrazin-6-yl}pyrazolo[3,4-c]pyridine-5-carboxamide] |  |  |
| 150 to 1500 | 1500 to 20000 | COc1cc2c(cnn2C)cc1C(=O)Nc1cn2cc([C@H]3CCCN3C)nc2cn1 [Example 96, 6-methoxy-1-methyl-N-{2-[(2R)-1-methylpyrrolidin-2-yl]imidazo[1,2-a]pyrazin-6-yl}indazole-5-carboxamide] |  |  |
| 150 to 1500 | 150 to 1500 | CN1CCC[C@@H]1c1cn2cc(NC(=O)c3ccc4nnn(C)c4c3)ncc2n1 [Example 97, 3-methyl-N-{2-[(2R)-1-methylpyrrolidin-2-yl]imidazo[1,2-a]pyrazin-6-yl}-1,2,3-benzotriazole-5-carboxamide] |  |  |
| 150 to 1500 | 150 to 1500 | CN1CCC[C@@H]1c1cn2cc(NC(=O)c3ccc4c(N5CCCCC5)nn(C)c4c3)ncc2n1 [Example 98, 1-methyl-N-{2-[(2R)-1-methylpyrrolidin-2-yl]imidazo[1,2-a]pyrazin-6-yl}-3-(piperidin-1-yl)indazole-6-carboxamide] |  |  |
| 150 to 1500 | 1500 to 20000 | CN1CCC[C@@H]1c1cn2cc(NC(=O)c3ccc4c(cnn4C)c3)nc(C3CC3)c2n1 [Example 99, N-[8-cyclopropyl-2-[(2R)-1-methylpyrrolidin-2-yl]imidazo[1,2-a]pyrazin-6-yl]-1-methyl-indazole-5-carboxamide] |  |  |
| 150 to 1500 | 150 to 1500 | Cc1nn(C)c2cc(C(=O)Nc3cn4cc([C@H]5CCCN5C)nc4c(C4CC4)n3)c(F)cc12 [Example 100, N-[8-cyclopropyl-2-[(2R)-1-methylpyrrolidin-2-yl]imidazo[1,2-a]pyrazin-6-yl]-5-fluoro-1,3-dimethyl-indazole-6-carboxamide] |  |  |
| < 150 | 150 to 1500 | CN1CCC[C@@H]1c1cn2cc(NC(=O)c3cc4cnn(C)c4cc3F)ncc2n1 [Example 101, 6-fluoro-1-methyl-N-[2-[(2R)-1-methylpyrrolidin-2-yl]imidazo[1,2-a]pyrazin-6-yl]indazole-5-carboxamide] |  |  |
| < 150 | 150 to 1500 | CN1CC2(CC2)C[C@@H]1c1cn2cc(NC(=O)c3ccc4c(cnn4C)c3)ncc2n1 [Example 102, 1-methyl-N-[2-[(6R)-5-methyl-5-azaspiro[2.4]heptan-6-yl]imidazo[1,2-a]pyrazin-6-yl]indazole-5-carboxamide] |  |  |
| 150 to 1500 | 150 to 1500 | CN1C[C@H](F)C[C@@H]1c1cn2cc(NC(=O)c3ccc4c(cnn4C)c3)ncc2n1 [Example 105, N-(2-((2R,4R)-4-fluoro-1-methylpyrrolidin-2-yl)imidazo[1,2-a]pyrazin-6-yl)-1-methyl-1H-indazole-5-carboxamide] |  |  |
